Assay [1] deals with T1, HSL (Rattus norvegicus, UniProt P15304).
T1 construct: The partially purified HSL can be stored at −70° C. for 4 to 6 weeks; from tissue; host or cells: rat epididymal fat cells (male Wistar rats)
T1 sequence (P15304 1-768 isoform P15304-2): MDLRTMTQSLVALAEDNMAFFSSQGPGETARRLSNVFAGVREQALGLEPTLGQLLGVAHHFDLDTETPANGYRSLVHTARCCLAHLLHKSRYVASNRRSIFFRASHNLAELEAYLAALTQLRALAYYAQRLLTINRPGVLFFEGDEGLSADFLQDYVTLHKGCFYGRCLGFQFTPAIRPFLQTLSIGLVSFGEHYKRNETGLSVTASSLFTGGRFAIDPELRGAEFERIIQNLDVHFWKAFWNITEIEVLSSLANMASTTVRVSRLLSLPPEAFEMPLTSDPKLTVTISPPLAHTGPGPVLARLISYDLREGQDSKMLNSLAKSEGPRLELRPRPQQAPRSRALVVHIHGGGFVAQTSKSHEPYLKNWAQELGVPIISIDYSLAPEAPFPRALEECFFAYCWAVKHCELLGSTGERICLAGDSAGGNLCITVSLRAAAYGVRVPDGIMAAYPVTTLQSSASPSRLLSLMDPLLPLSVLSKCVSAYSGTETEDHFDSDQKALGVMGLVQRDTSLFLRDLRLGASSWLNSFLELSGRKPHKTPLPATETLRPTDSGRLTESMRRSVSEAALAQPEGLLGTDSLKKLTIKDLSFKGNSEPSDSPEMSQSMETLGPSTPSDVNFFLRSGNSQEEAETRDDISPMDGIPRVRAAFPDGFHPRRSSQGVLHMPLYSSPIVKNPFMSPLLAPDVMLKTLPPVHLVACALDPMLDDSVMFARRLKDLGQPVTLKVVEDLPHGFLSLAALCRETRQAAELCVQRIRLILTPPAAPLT
Kind of assay: TAG assay ([3H]trioleoylglycerol cleavage). In kind it is biochemical. Here is the method: (§1) Isolated rat fat cells are obtained from epididymal fatty tissue from untreated male rats (Wistar, 220-250 g) by collagenase treatment according to published processes. The fat cells from 10 rats are washed three times by flotation with 50 ml each of homogenization buffer ([…], pH 7.4, 0.25 M sucrose, 1 mM ethylenediamine-N,N,N′,N′-tetraacetic acid (EDTA), 1 mM dithiothreitol (DTT), 10 μg/ml of leupeptin, 10 μg/ml of antipain, 20 μg/ml of pepstatin) and finally taken up in 10 ml of homogenization buffer. The fat cells are homogenized in a Teflon-in-glass homogenizer (Braun-Melsungen) by 10 strokes at 1500 rpm and 15° C. […]
For the preparation of the substrate, 25-50 μCi of [^3H]trioleoylglycerol (TAG)(in toluene), 6.8 μMol of unlabeled trioleoylglycerol, and 0.6 mg of phospholipids (phosphatidylcholine/phosphatidylinositol 3:1 w/v) are mixed, dried over N2, and then taken up in 2 ml of 0.1 M potassium dihydrogenphosphate/potassium phosphate buffer (KPi)(pH 7.0) by ultrasonic treatment (Branson 250, microtip, setting 1-2, 2×1 min at a 1 min interval). […] After phase separation, one equivalent of the upper phase (1 ml) is taken and the radioactivity is determined by liquid scintillation measurement.
Substances are customarily tested in four independent batches. […] The IC50 value is calculated by means of an inhibition curve using at least 10 concentrations of the test substance. […]

Assay [2] addresses T1, HSL. Kind of assay: Tributyrin assay. In kind it is biochemical. To be noted: Example 6, Table 6; n=5, mean±SD. How it is done:
as §1, with “C. The homogenizate is centrifuged (Sorvall SM24 tubes, 5000 rpm, 10 min, 4° C.).” for “C.”
For the preparation of the substrate, 5 μCi of [1-^14C]tributyrin (in toluene) are added to 1 ml of 20 mM unlabeled tributyrin (in acetonitrile). […] An equivalent volume (1 ml) of the upper phase is taken and the radioactivity is determined by liquid scintillation measurement.
Substances are customarily tested in four independent batches. The inhibition of the enzymatic activity of the HSL by a test substance is determined by comparison with an uninhibited control reaction. The IC50 value is calculated by means of an inhibition curve using at least 10 concentrations of the test substance. […]

Where “and” joins values, the source holds several entries; their conditions need not be identical. Equal values may be shown once.

Broadly, the IC50 is the concentration that gives 50% inhibition. Consider `O=C(CCCCCCCCCCCNc1ccc([N+](=O)[O-])c2nonc12)OCC(O)CO` (racemic) [Compound 3], for which the IC50 was 15.3 µM and 17.3 µM against HSL [1]; more than 100 µM at HSL [2].

Source of the values: US6783949B1, “Processes for determining whether a test substance contains lipases or lipase inhibitors” (Aventis Pharma Deutschland GmbH, priority 1999, dated 2004).
